These results are taken from patent EP4570793A1, “5-HT2A RECEPTOR INVERSE AGONIST, AND PREPARATION METHOD THEREFOR AND USE THEREOF” (Luye Innomind Pharma Shijiazhuang Co., Ltd., priority 2022, dated 2024).

Data set [1] can be described thus: In-vitro liver microsomal stability (rat). As to conditions: Rat liver microsomes, 1 µM, 0.5 mg/mL, NADPH. In kind it is in vitro ADME. The protocol: (§1) Test Example 3. Evaluation of In-Vitro Liver Microsomal Stability
(§2) • 1) Preparation of test sample working solution: A test sample was diluted to 100 µM with methanol. • 2) Preparation of liver microsome working solution: Liver microsomes were diluted to 0.56 mg/mL with 100 mM phosphate-buffered saline. • 3) Preparation of working solution of reduced nicotinamide adenine dinucleotide phosphate (NADPH): A proper amount of NADPH was weighed out and diluted to 20 mM with phosphate-buffered saline, and then an equal volume of a 60 mM MgCl2 solution was added. • 4) Preparation of stop solution: Tolbutamide was diluted to 20 ng/mL with acetonitrile to serve as a stop solution containing an internal standard.
(§3) • 1) Anti-adsorption EP tubes for incubation were prepared and labeled with species, test samples, control samples (testosterone and dextromethorphan), time points (0 min, 5 min, 10 min, 20 min, 30 min, 60 min, Blank60, and NCF60), etc. • 2) 2 µL of test or control sample working solution and 178 µL of liver microsome working solution were added to each tube. For the Blank tube, 2 µL of acetonitrile was added instead of the test sample. The tubes were preincubated in a water bath at 37 °C for about 10 min, with 3 replicates set up for each sample. • 3) After the pre-incubation was completed, 20 µL of NADPH working solution was added to each tube except for the 0 min and NCF60 tubes to start the reaction. For the NCF60 tube, 20 µL of phosphate-buffered saline (containing 30 mM MgCl2) was added. In the incubation system, the final concentration of the test or control sample was 1 µM, the final concentration of liver microsomes was 0.5 mg/mL, the final concentration of NADPH was 1 mM, and the final concentration of MgCl2 was 3 mM. • 4) For the 0 min sample, 600 µL of stop solution was added, followed by the addition of the NADPH working solution. For the other samples, after each of them was incubated for the corresponding time, 600 µL of stop solution was added to stop the reaction. • 5) After the reaction was stopped, each sample was vortexed for 30 s and then centrifuged at 13500 rpm for 10 min. Then, 100 µL of the supernatant was transferred to an EP tube, and 100 µL of Milli-Q water was added. The mixture was well mixed by vortexing and analyzed by LC-MS/MS. • 6) Testosterone and dextromethorphan were used as positive control samples under the same conditions to assess the stability and reliability of the system.
(§4) Table 2: Test data for the compounds of the present disclosure in human and rat liver microsomes

Data set [2] has as its target hERG potassium channels (Homo sapiens, UniProt Q12809). The data set can be described thus: cell-based.
Procedure: • Species & strain: CHO-hERG cell line (Chinese hamster ovary cells stably expressing hERG channels) • Culture medium: 90% F12, 10% fetal bovine serum, 100 µg/mL G418, and 100 µg/mL Hygromycin B • Culture conditions: incubator at 37 °C with 5% CO2 • Cryopreservation condition: liquid nitrogen
On the day of the test, the compound was diluted with DMSO to an intermediate concentration. Then, 10 µL of the intermediate-concentration compound was transferred to 4990 µL of extracellular fluid, achieving a 500-fold dilution to obtain the final concentration to be tested.
hERG potassium channel currents were recorded at room temperature by the whole-cell patch clamp technique in the CHO (Chinese hamster ovary) cells stably expressing hERG potassium channels. Glass microelectrodes were formed by pulling a glass electrode blank (BF150-86-10, Sutter) using a puller. The tip resistance after perfusion of electrode internal solution was about 2-5 MΩ. The glass microelectrodes could be connected to a patch clamp amplifier after being inserted into amplifier probes. The clamping voltage and data recording were controlled and recorded by a computer with a pClamp 10 software, with a sampling frequency of 10 kHz and a filtering frequency of 2 kHz. After achieving the whole-cell recording, the cells were clamped at -80 mV. The step voltage evoking hERG potassium current (IhERG) was changed from -80 mV to +20 mV by applying a 2 s depolarization voltage, followed by repolarization to -50 mV for 1 s, and then returned to -80 mV. This voltage stimulation was applied every 10 s, and after it was determined that the hERG potassium currents were stable (1 min), the administration process was started. Each test concentration of the compound was applied for at least 1 min, and at least 2 cells (n ≥ 2) were tested for each concentration.
Data set [3] in a line: In-vitro liver microsomal stability (human). Particulars: Human liver microsomes, 1 µM, 0.5 mg/mL, NADPH. In kind it is in vitro ADME. The protocol:
as §1, §2, §3, §4

For data set [4], the target named is 5-HT2A receptor (Homo sapiens, UniProt P28223). As to the kind of experiment: Assay for 5-HT2A receptor inverse agonist activity (NIH3T3-5-HT2A R cells, Bright-Glo luciferase, cell inhibition rate).
Procedure: Assay for 5-HT2A Receptor Inverse Agonist Activity
• Cell line: adherent cells NIH3T3-5-HT2A R • Cell culture medium: DMEM + 10% FBS (purchased from GBICO) • Cell culture plate: 96-well white/clear bottom plate (purchased from Perkin Elmer) • Detection kit: Bright-Glo™ Luciferase (purchased from Promega) • Detection instrument: BioTek multimode microplate reader
NIH3T3-5HT2A R cells in the logarithmic growth phase were seeded into a 96-well white/clear bottom plate at a density of 1000 cells/well and then cultured overnight in an incubator at 37 °C with 5% CO2. […] Duplicate wells were set up for each concentration. […] After the drug addition, the cells were cultured in the incubator at 37 °C with 5% CO2 for another 120 h. On the sixth day, a Bright-Glo™ Luciferase reagent was added to the cells in a volume equal to that of the cell culture medium. The plate was then incubated in the dark at room temperature for 20 min, with the plate shaker vibrating once every 5 min. The luminescence intensity was detected using a microplate reader, and the cell inhibition rate was calculated. Data were processed using GraphPad Prism 7.0 to obtain the cell inhibition rate curve and calculate IC50.
The nature of data set [5]: In-vitro liver microsomal stability (dog). In kind it is in vitro ADME. Particulars: Dog liver microsomes, 1 µM, 0.5 mg/mL, NADPH. As for the experimental part:
as §1, §2
as §3, with “system. […]” for “system.”

[6] abbreviates: 5-HT2A inverse agonist activity IC50 (nM), NIH3T3-5HT2A R cells, 120 h, luminescence.

The structures appear in SMILES notation. Like-named read-outs stand apart in the source and are kept apart here. A value given as a limit tells only on which side of the number the result lay.

Chain of 5-HT2A receptor (P28223 whole entry): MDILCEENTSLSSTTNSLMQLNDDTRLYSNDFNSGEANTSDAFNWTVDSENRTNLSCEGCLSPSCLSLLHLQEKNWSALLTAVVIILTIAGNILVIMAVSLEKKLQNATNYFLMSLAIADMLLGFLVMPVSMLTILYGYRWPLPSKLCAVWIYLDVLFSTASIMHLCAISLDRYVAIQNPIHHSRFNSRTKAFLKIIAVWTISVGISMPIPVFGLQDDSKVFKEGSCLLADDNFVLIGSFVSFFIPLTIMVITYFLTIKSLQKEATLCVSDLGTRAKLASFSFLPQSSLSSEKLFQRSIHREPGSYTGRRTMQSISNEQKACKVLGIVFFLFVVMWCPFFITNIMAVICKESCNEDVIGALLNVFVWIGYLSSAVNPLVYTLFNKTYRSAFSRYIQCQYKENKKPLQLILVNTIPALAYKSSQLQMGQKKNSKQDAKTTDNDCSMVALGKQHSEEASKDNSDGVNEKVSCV
Chain of hERG potassium channels (Q12809 whole entry): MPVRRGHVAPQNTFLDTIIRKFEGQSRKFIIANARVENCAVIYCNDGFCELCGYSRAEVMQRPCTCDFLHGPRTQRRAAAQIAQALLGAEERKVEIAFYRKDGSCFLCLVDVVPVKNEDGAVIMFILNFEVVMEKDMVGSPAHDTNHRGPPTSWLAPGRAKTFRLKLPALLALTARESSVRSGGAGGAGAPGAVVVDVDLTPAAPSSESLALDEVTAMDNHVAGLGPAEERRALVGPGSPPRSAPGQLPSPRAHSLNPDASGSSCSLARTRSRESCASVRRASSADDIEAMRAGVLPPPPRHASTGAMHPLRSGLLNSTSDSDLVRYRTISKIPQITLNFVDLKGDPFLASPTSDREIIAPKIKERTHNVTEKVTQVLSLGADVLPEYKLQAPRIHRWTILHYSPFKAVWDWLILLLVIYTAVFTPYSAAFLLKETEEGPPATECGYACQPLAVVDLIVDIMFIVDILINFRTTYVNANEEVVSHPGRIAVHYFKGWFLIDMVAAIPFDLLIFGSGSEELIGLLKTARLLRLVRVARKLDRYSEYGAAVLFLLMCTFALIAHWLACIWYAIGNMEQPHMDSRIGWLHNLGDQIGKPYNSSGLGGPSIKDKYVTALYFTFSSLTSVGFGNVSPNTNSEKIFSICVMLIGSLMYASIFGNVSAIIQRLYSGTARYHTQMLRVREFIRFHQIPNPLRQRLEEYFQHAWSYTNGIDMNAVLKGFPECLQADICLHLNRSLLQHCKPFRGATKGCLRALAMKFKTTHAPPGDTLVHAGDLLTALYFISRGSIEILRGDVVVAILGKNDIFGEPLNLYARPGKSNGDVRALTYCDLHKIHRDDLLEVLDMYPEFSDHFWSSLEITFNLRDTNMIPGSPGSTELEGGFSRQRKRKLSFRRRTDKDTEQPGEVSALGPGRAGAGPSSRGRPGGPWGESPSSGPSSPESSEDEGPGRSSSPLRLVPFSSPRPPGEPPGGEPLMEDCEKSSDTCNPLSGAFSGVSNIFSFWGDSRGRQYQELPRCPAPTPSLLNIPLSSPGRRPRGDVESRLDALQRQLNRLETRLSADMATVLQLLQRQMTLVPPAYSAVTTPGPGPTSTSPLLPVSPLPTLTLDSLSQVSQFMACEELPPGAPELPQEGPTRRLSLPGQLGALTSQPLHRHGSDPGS

Turning to `CN1CCC(N(Cc2ccc(F)cn2)C(=O)NCc2ccc(OCC(F)(F)F)nc2)C2(CC2)C1` (single isomer, unassigned) [Compound 50A], the “Remaining amount% at 60 min” value in data set [1] stood at 58.8%; in data set [3] it was 89.7%. For the same compound, the IC50 was 2.2 µM in data set [2] and 2.6 nM in data set [4] (setting [6]).
Regarding `CN1CCC(N(Cc2ccc(F)cn2)C(=O)NCc2ccc(OCC(F)(F)F)cn2)CC1` [Compound 1], the “Remaining amount% at 60 min” value came to 88.7% in data set [5] and 85.7% in data set [3]. Further, the results for the IC50 in data set [2] and in data set [4] (setting [6]) were 4.93 µM and 152 nM, respectively.
As to `CN1CCC(N(Cc2ccc(F)cn2)C(=O)NCc2ccc3[nH]ccc3c2)CC1` [Compound 9], the “Remaining amount% at 60 min” value in data set [5] amounted to 45.3%; in data set [3] it was 93.1%. Further, the figures for the IC50 in data set [2] and in data set [4] (setting [6]) were 3.12 µM and 28.2 nM, respectively.
In the case of `CN1CCC(N(Cc2ccc(F)cn2)C(=O)NCc2ccc3ncccc3c2)CC1` [Compound 10], the “Remaining amount% at 60 min” value in data set [5] is 58.6%; in data set [3] it was 71.9%. Moreover, the IC50 in data set [2] stood at 3.86 µM; in data set [4] (setting [6]), 29.6 nM.
In the case of `CN1CCC(N(Cc2ccc(F)cn2)C(=O)NCc2ccc3c(ccn3C)c2)CC1` [Compound 12], the “Remaining amount% at 60 min” value is given as 69.21% in data set [1] and 77.06% in data set [3]. Besides, the IC50 in data set [2] stood at 2.22 µM; in data set [4], 163 nM.
For the compound `CN1CCC(N(Cc2ccc(F)cn2)C(=O)NCc2cnc(OC3CC(F)(F)C3)c(F)c2)CC1` [Compound 19], the “Remaining amount% at 60 min” value in data set [5] was found to be 78.39%; in data set [3], 72.49%. In data set [4], this compound returned an IC50 of 33.1 nM.
For the compound `CN1CCC(N(Cc2ccc(F)cn2)C(=O)NCc2cnc(OCC(F)(F)F)c(Cl)c2)CC1` [Compound 27], the “Remaining amount% at 60 min” value in data set [1] came out at 63.98%; in data set [3] it was 50.93%. In data set [2], the IC50 was over 30 µM.
Turning to `CN1CCC(N(Cc2ccc(F)cn2)C(=O)NCc2cnc(OCC(F)(F)F)c(Br)c2)CC1` [Compound 28], the figures for the “Remaining amount% at 60 min” value in data set [1] and in data set [3] were 54.78% and 38.94%, respectively. This compound also yielded a half-inhibitory concentration (IC50) in data set [2] of over 30 µM.
With `CN1CC[C@H](N(Cc2ccc(F)cn2)C(=O)NCc2ccc(OCC(F)(F)F)nc2)[C@@H](F)C1` [Compound 66], the “Remaining amount% at 60 min” value is 85.1% in data set [5] and 73.7% in data set [3]. The 50% inhibitory concentration (IC50) worked out at 2.99 µM in data set [2] and 22.7 nM in data set [4].
`CN1CC[C@@H](N(Cc2ccc(F)cn2)C(=O)NCc2ccc(OCC(F)(F)F)nc2)[C@H](F)C1` [Compound 67]: the “Remaining amount% at 60 min” value in data set [5] was 81.4%; in data set [3], 66.2%. This compound showed an IC50 in data set [4] of over 1000 nM.
